Data taken from patent US20190315711A1 (eXIthera Pharmaceuticals, Inc., priority 2016, published 2019).
Converted amounts (≈) assume the structure as drawn.

Key:
Factor Xa = molecular target: T1, Factor Xa (Homo sapiens, UniProt P00742); assay: Dose response assay for protease inhibitors: Factor Xa; type: biochemical; conditions: ratio versus Factor XIa
T1 construct: Factor Xa; 0.2 μM in 50% glycerol (9.2 μg/mL)

[1] = Aqueous solubility in PBS pH 7.4; type: physicochemical; conditions: phosphate buffered saline, aqueous buffer, kinetic from dmso stock, PBS pH 7.4, room temperature
Description: The following procedure was used to determine the aqueous solubility of a test compound in phosphate buffered saline (PBS—NaCl 137 mM, KCl 2.7 mM, Na2HPO4 8.1 mM, KH2PO4 1.5 mM, pH 7.4) in 96-well plate format by HPLC-UV/VIS analysis. The test compound was prepared at 200 μM in PBS from a 10 mM DMSO stock solution. The final DMSO concentration was 2%. The PBS buffer samples were mixed thoroughly followed by incubation at room temperature for 24 h. At the end of the incubation, the PBS buffer samples were centrifuged and supernatants analyzed by HPLC. The aqueous solubility (μM) of the test compound in PBS was determined by comparing the peak area of the principal peak in the calibration standard (200 μM) with the peak area of the corresponding peak in each of the PBS samples. The range of the assay was approximately 0.5 μM to 200 μM. The reference compounds used in each assay were metoprolol, rifampicin, ketoconazole, phenytoin, haloperidol, simvastatin, diethylstilbestrol, and tamoxifen ranking from fully soluble (200 μM) to poorly soluble (<1 μM).

[2] = Plasma protein binding by equilibrium dialysis; type: in vitro ADME; conditions: both sexes, pooled plasma, pH 7.4, human plasma protein binding, read-out: PPB
Description: The following procedure was used to determine the plasma protein binding of a test compound in pooled plasma from human (mixed gender) via equilibrium dialysis in a 96-well plate format. The dialysate compartment was loaded with phosphate-buffered saline (pH 7.4) and the sample side was loaded with plasma spiked with the test compound at a concentration of 10 μM. After loading, samples were covered and incubated for 4 hours at 37° C. After incubation, each compartment was sampled, diluted with acetonitrile/buffer and centrifuged. The supernatants were analyzed by HPLC-MS/MS. The analyte peak areas obtained from HPLC-MS/MS analysis of each sample were used to calculate protein binding according to the following equation (Equation 4):
where: AREAp=Peak area of analyte in protein matrix; AREAb=Peak area of analyte in buffer. The amount measured in the plasma compartment included both free and bound drug, while that on the buffer side represented free drug only; the differences were used to calculate the percentage plasma protein bound. Three reference compounds were tested in each assay: acebutolol, quinidine and warfarin.

[3] = Metabolic stability in dog hepatocytes; type: in vitro ADME; conditions: pooled cryopreserved hepatocytes; beagle dog hepatocytes, 2 μM compound, 500,000 cells/mL, 37° C.; read-out: Dog Hepatocyte Stability (T½: min)
Description: The following procedure was used to determine the stability of test compounds in beagle dog hepatocytes in a 96-well plate format. The test compounds, including the controls, imipramine and 7-ethoxycoumarin, were dissolved at 10 mM in DMSO, followed by further 5-fold dilution with DMSO to 2 mM. Pooled cryopreserved beagle dog hepatocytes were thawed and transferred into complete medium. Cells were gently centrifuged (700 rpm for 5 min) and the pellet rinsed with KHB (Krebs Henseleit buffer). Cells were resuspended, counted using Trypan blue, and adjusted to 1 million cells/mL in KHB buffer. The 2 mM compound stock solutions were diluted 10-fold with acetonitrile, followed by a further 50-fold dilution with KHB buffer. 200 μL of these compound solutions were transferred to 96-well polypropylene assay plates and an equal volume of the hepatocyte solution was added and mixed to initiate the reaction (final assay concentrations were 2 μM compound and 500,000 cells/mL). Assay plates were incubated at 37° C. in 5% CO2 with gentle agitation. 50 μL aliquots were removed at multiple time points out to 180 minutes and quenched with 6 volumes of cold acetonitrile (containing 250 ng/mL of carbutamide and chrysin as internal standards) to terminate the reaction and precipitate protein. Quenched samples were maintained on ice. The quenched samples were centrifuged at 2000×g (3100 rpm) for 10 minutes at 4° C. 50 μL aliquots of the supernatants were removed and diluted with 100 μL Milli-Q water to reduce the % organic content prior to bioanalysis by LC-MS/MS. Peak areas corresponding to the test compound were recorded. The compound remaining was calculated by comparing the peak area at each time point to time zero. Data were analyzed and results were calculated using Microsoft Excel 2010.

T1 sequence (P00742 235-488 limits assumed): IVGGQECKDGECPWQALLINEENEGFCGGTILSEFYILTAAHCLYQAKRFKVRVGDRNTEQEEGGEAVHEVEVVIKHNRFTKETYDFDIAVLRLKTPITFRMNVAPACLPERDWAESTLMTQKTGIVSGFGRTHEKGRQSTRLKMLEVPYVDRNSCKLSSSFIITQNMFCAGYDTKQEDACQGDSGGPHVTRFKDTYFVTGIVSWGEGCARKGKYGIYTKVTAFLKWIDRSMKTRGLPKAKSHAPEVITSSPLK
T1 sequence (P00742 41-179 partner limits assumed): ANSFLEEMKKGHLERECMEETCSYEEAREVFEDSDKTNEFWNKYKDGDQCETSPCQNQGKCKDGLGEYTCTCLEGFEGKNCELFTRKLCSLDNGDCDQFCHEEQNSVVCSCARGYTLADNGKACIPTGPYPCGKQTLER

SMILES	FXa/FXIa (selectivity ratio) (Factor Xa)	solubility at 24 h [1] [µM]	fraction unbound at 4 h, 10 μM [2]	half-life at 2 μM [3] [h]
CN(C(=O)[C@@H]1[C@@H](Cc2ccnc(N)c2)C(=O)N1C(=O)N[C@@H](C1CCCCC1)C(F)(F)F)c1cccnc1 [Compound 17]	H (“H” indicates 101-1000)	> 100	0.1 to 0.5	–
CN(C(=O)[C@@H]1[C@@H](Cc2ccnc(N)c2)C(=O)N1C(=O)NC(c1ccccc1)c1ccccc1)c1ccncc1 [Compound 82]	I (“I” indicates >500)	> 100	0.05 to 0.09	2.02 to 4
CC[C@@H](NC(=O)N1C(=O)[C@H](Cc2ccnc(N)c2)[C@H]1C(=O)N(C)c1ccncc1)c1ccccc1 [Compound 42]	I (“I” indicates >500)	> 100	0.1 to 0.5	2.02 to 4
CC[C@@H](NC(=O)N1C(=O)[C@H](Cc2ccnc(N)c2)[C@H]1C(=O)N(C)c1ncccn1)c1cccc(Cl)c1 [Compound 121]	I (“I” indicates >500)	> 100	0.05 to 0.09	< 1
CC[C@@H](NC(=O)N1C(=O)[C@H](Cc2ccnc(N)c2)[C@H]1C(=O)N(C)c1ncccn1)c1ccccc1 [Compound 84]	I (“I” indicates >500)	> 100	0.1 to 0.5	1.02 to 2
CN(C(=O)[C@@H]1[C@@H](Cc2ccnc(N)c2)C(=O)N1C(=O)N[C@@H](C1CCCCC1)C(F)(F)F)c1cccc(F)c1 [Compound 22]	H (“H” indicates 101-1000)	10 to 100 (≈ 5.36 to 53.6 µg/mL)	< 0.05	–
CN(C(=O)[C@@H]1[C@@H](Cc2ccnc(N)c2)C(=O)N1C(=O)N[C@@H](C1CCCCC1)C1CC1)c1ccccc1 [Compound 36]	I (“I” indicates >500)	> 100	< 0.05	< 1
CCN(C(=O)[C@@H]1[C@@H](Cc2ccnc(N)c2)C(=O)N1C(=O)N[C@@H](C1CCCCC1)C(F)(F)F)c1ccccc1 [Compound 24]	H (“H” indicates 101-1000)	10 to 100 (≈ 5.32 to 53.2 µg/mL)	< 0.05	–
CC[C@@H](NC(=O)N1C(=O)[C@H](Cc2ccnc(N)c2)[C@H]1C(=O)N(C)c1ccccc1)C1CCCCC1 [Compound 27]	I (“I” indicates >500)	> 100	0.05 to 0.09	2.02 to 4
CC[C@H](NC(=O)N1C(=O)[C@H](Cc2ccnc(N)c2)[C@H]1C(=O)N(C)c1ccncc1)c1ccccc1C [Compound 97]	I (“I” indicates >500)	> 100	0.1 to 0.5	2.02 to 4
CC[C@@H](NC(=O)N1C(=O)[C@H](Cc2ccnc(N)c2)[C@H]1C(=O)N(C)c1ccncc1)c1cccc(OC)c1 [Compound 100]	H (“H” indicates 101-1000)	> 100	0.1 to 0.5	> 4
CC[C@@H](NC(=O)N1C(=O)[C@H](Cc2ccnc(N)c2)[C@H]1C(=O)N(CC)c1ncccn1)C1CCCCC1 [Compound 39]	I (“I” indicates >500)	–	–	< 1
CC[C@@H](NC(=O)N1C(=O)[C@H](Cc2ccnc(N)c2)[C@H]1C(=O)N(C)c1ncncn1)C1CCCCC1 [Compound 81]	I (“I” indicates >500)	> 100	< 0.05	< 1
CN(C(=O)[C@@H]1[C@@H](Cc2ccnc(N)c2)C(=O)N1C(=O)N[C@@H](C1CCCCC1)C(F)(F)F)c1cncnc1 [Compound 19]	H (“H” indicates 101-1000)	> 100	0.05 to 0.09	–
CN(C(=O)[C@@H]1[C@@H](Cc2ccnc(N)c2)C(=O)N1C(=O)N[C@@H](C1CCCCC1)C(F)(F)F)c1ncccn1 [Compound 21]	I (“I” indicates >500)	> 100	< 0.05	< 1
CC[C@@H](NC(=O)N1C(=O)[C@H](Cc2ccnc(N)c2)[C@H]1C(=O)N(C)c1ccncc1)c1ccccc1Cl [Compound 95]	I (“I” indicates >500)	> 100	0.05 to 0.09	2.02 to 4
Cc1ccccc1N(C)C(=O)[C@@H]1[C@@H](Cc2ccnc(N)c2)C(=O)N1C(=O)N[C@@H](C1CCCCC1)C(F)(F)F [Compound 15]	H (“H” indicates 101-1000)	10 to 100 (≈ 5.32 to 53.2 µg/mL)	< 0.05	–
CC[C@@H](NC(=O)N1C(=O)[C@H](Cc2ccnc(N)c2)[C@H]1C(=O)N(C)c1ccncc1)c1ccc(Cl)cc1 [Compound 89]	H (“H” indicates 101-1000)	> 100	0.05 to 0.09	> 4
CC[C@@H](NC(=O)N1C(=O)[C@H](Cc2ccnc(N)c2)[C@H]1C(=O)N(C)c1ccncc1)c1cccc(Cl)c1 [Compound 90]	I (“I” indicates >500)	> 100	< 0.05	2.02 to 4
CC[C@@H](NC(=O)N1C(=O)[C@H](Cc2cc(C)nc(N)c2)[C@H]1C(=O)N(C)c1ccccc1)C1CCCCC1 [Compound 91]	I (“I” indicates >500)	> 100	0.05 to 0.09	1.02 to 2
CCC[C@@H](NC(=O)N1C(=O)[C@H](Cc2ccnc(N)c2)[C@H]1C(=O)N(C)c1ccncc1)c1ccccc1 [Compound 86]	I (“I” indicates >500)	> 100	< 0.05	> 4
CC[C@@H](NC(=O)N1C(=O)[C@H](Cc2ccnc(N)c2)[C@H]1C(=O)N(C)c1ccccc1)C1CC1 [Compound 46]	H (“H” indicates 101-1000)	> 100	0.1 to 0.5	–
CN(C(=O)[C@@H]1[C@@H](Cc2ccnc(N)c2)C(=O)N1C(=O)N[C@@H](C1CCCCC1)C(F)(F)F)c1ccncc1 [Compound 18]	I (“I” indicates >500)	> 100	0.1 to 0.5	–
